The values below come from US20090203726A1, “SUBSTITUTED TETRAHYDROQUINOLINES AS ANTIBACTERIAL AGENTS” (priority 2007, published 2009).

Each structure is given as a SMILES string. Read-outs that look alike come from different tables or passages of the source.

Test [1] addresses T1, MurA (EPT E coli) (Escherichia coli, UniProt P0A749).
T1 construct: made in house
As to the kind of experiment: Kinetic IC50 assay of MurA inhibition (Malachite Green), EPT E coli. In kind it is biochemical.

The target in test [2] is MurA (EPT Y pestis) (Yersinia pestis, UniProt Q8ZB56). As to the kind of experiment: biochemical.
Chain of MurA (EPT Y pestis) (Q8ZB56 whole entry, looked up): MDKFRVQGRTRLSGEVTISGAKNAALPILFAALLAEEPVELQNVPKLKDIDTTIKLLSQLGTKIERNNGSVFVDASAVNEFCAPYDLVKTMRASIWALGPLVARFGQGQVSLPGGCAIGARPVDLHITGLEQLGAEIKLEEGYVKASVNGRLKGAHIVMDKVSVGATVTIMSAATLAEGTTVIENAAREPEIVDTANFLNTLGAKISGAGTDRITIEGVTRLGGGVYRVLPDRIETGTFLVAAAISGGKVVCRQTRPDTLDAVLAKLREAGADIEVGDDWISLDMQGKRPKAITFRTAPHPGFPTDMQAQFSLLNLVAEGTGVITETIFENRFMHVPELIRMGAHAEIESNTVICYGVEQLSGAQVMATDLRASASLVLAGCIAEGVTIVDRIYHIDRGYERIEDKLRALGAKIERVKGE
The mark [3] stands for this setting: MurA enzyme, E coli, values given as ranges, read-out: IC50 EPT E coli.

T1 sequence (P0A749 whole entry): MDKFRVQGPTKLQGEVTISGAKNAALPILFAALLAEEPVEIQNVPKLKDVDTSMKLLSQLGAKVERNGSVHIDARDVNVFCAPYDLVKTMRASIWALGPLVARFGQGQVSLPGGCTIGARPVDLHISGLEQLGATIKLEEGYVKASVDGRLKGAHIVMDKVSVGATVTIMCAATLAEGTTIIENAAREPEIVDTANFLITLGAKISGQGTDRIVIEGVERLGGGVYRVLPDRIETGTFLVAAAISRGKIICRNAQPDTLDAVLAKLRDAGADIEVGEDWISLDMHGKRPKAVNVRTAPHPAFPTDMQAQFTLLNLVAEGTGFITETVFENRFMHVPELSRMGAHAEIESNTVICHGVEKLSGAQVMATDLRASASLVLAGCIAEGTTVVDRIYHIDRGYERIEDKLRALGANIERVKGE

For the compound `O=C(O)C1Nc2ccc(F)cc2C2C=CCC12` (stereo not drawn) [Compound 1], the IC50 lay in the range of 5 to 20 µM in test [1] (setting [3]) and 20 to 40 µM in test [2].

For `O=C(O)C1Nc2ccc(F)c(Cl)c2C2C=CCC12` (stereo not drawn) [Compound 2], the IC50 in test [1] (setting [3]) is more than 200 µM; in test [2], 10 to 30 µM.

Consider `O=C(O)c1ccc2c(c1)C1C=CCC1C(C(=O)O)N2` (stereo not drawn) [Compound 3], for which the IC50 in test [1] (setting [3]) is 2 to 40 µM; in test [2], 10 to 30 µM.

As to `CN(C)C(=O)c1cccc2c1NC(C(=O)O)C1CC=CC21` (stereo not drawn) [Compound 4], the IC50 in test [1] (setting [3]) is more than 200 µM; in test [2] it was 80 to 120 µM.

As to `O=C(O)C1Nc2cc(C(F)(F)F)ccc2C2C=CCC12` (stereo not drawn) [Compound 5], the IC50 in test [1] (setting [3]) lay within 150 to 200 µM; in test [2] it was 10 to 30 µM.

As to `CC(=O)Nc1ccc2c(c1)C1C=CCC1C(C(=O)O)N2` (stereo not drawn) [Compound 6], the IC50 was more than 200 µM in test [1] (setting [3]) and 50 to 100 µM in test [2].

In the case of `NC(=O)c1cccc2c1NC(C(=O)O)C1CC=CC21` (stereo not drawn) [Compound 7], the IC50 in test [1] (setting [3]) was in the range of 5 to 20 µM; in test [2], 20 to 40 µM.

For `CCOC(=O)C1Nc2c(C(=O)Nc3ccccc3)cccc2C2C=CCC12` (stereo not drawn) [Compound 8], the half-maximal inhibitory concentration (IC50) in test [1] (setting [3]) was more than 200 µM.

In the case of `O=C(Nc1ccccc1)c1cccc2c1NC(C(=O)O)C1CC=CC21` (stereo not drawn) [Compound 9], in test [1] (setting [3]), the IC50 was more than 200 µM.

For `O=C(O)C1Nc2c(C(=O)N3CCN(c4ccccc4)CC3)cccc2C2C=CCC12` (stereo not drawn) [Compound 10], the IC50 in test [1] (setting [3]) is more than 200 µM.

In the case of `CCOC(=O)C1Nc2c(C(=O)Oc3ccc(-c4ccc(C#N)cc4)cc3)cccc2C2C=CCC12` (stereo not drawn) [Compound 11], the IC50 in test [1] (setting [3]) was more than 200 µM.

`CCOC(=O)C1Nc2c(C(=O)Oc3ccc(-c4cccc(C#N)c4)cc3)cccc2C2C=CCC12` (stereo not drawn) [Compound 12]: the IC50 in test [1] (setting [3]) was more than 200 µM.

On to `O=C(Nc1ccc(Cl)cc1)c1cccc2c1NC(C(=O)O)C1CC=CC21` (stereo not drawn) [Compound 13], for which the IC50 in test [1] (setting [3]) is more than 200 µM.

As to `COc1ccc(NC(=O)c2cccc3c2NC(C(=O)O)C2CC=CC32)cc1` (stereo not drawn) [Compound 14], in test [1] (setting [3]), the IC50 was more than 200 µM.

For `O=C(Nc1ccc(-c2ccccc2)cc1)c1cccc2c1NC(C(=O)O)C1CC=CC21` (stereo not drawn) [Compound 15], in test [1] (setting [3]), the IC50 is 50 to 100 µM.

Turning to `O=C(Oc1ccc(-c2ccccc2)cc1Cl)c1cccc2c1NC(C(=O)O)C1CC=CC21` (stereo not drawn) [Compound 21], the IC50 in test [1] (setting [3]) lay within 30 to 50 µM; in test [2], 5 to 15 µM.

Regarding `O=C(Oc1ccc(-c2ccccc2)cc1Cl)c1cccc2c1NC(C(=O)O)C1CC3OC3C21` (stereo not drawn) [Compound 22], the IC50 in test [1] (setting [3]) was 40 to 60 µM; in test [2], 10 to 30 µM.

For the compound `O=C(Oc1ccc(-c2ccccc2)cc1[N+](=O)[O-])c1cccc2c1NC(C(=O)O)C1CC=CC21` (stereo not drawn) [Compound 23], the IC50 lay in the range of 30 to 50 µM in test [1] and 10 to 20 µM in test [2].

For the compound `N#Cc1ccc(-c2ccc(OC(=O)c3cccc4c3NC(C(=O)O)C3CC=CC43)cc2)cc1` (stereo not drawn) [Compound 24], the IC50 in test [1] (setting [3]) is 40 to 60 µM; in test [2], 20 to 30 µM.

Take `O=C(O)C1Nc2c(COc3ccccc3)cccc2C2C=CCC12` (stereo not drawn) [Compound 25]: the IC50 in test [1] (setting [3]) was more than 200 µM.

Turning to `CC(C)(C)c1ccc(OCc2cccc3c2NC(C(=O)O)C2CC=CC32)cc1` (stereo not drawn) [Compound 26], the IC50 in test [1] (setting [3]) was more than 200 µM.

As for `O=C(O)C1Nc2c(COc3ccc(Cl)cc3)cccc2C2C=CCC12` (stereo not drawn) [Compound 27], in test [1] (setting [3]), the IC50 was more than 200 µM.

With `Cc1ccc(OCc2cccc3c2NC(C(=O)O)C2CC=CC32)cc1` (stereo not drawn) [Compound 28], the IC50 in test [1] (setting [3]) was more than 200 µM.

With `O=C(O)C1Nc2c(OCc3ccccc3)cccc2C2C=CCC12` (stereo not drawn) [Compound 29], the 50% inhibitory concentration (IC50) in test [1] (setting [3]) is more than 200 µM.

`Cc1ccc(COc2cccc3c2NC(C(=O)O)C2CC=CC32)cc1` (stereo not drawn) [Compound 30]: the IC50 in test [1] (setting [3]) is more than 200 µM.

As for `O=C(Oc1ccc(-c2ccc(O)cc2)cc1)c1cccc2c1NC(C(=O)O)C1CC=CC21` (stereo not drawn) [Compound 31], the IC50 in test [1] (setting [3]) lay in the range of 90 to 110 µM; in test [2], 20 to 40 µM.

`COc1ccc(-c2ccc(OC(=O)c3cccc4c3NC(C(=O)O)C3CC=CC43)cc2)cc1` (stereo not drawn) [Compound 32]: the 50% inhibitory concentration (IC50) in test [1] (setting [3]) fell in the range of 40 to 60 µM; in test [2] it was 15 to 25 µM.

On to `O=C(Oc1ccc(-c2ccc([N+](=O)[O-])cc2)cc1)c1cccc2c1NC(C(=O)O)C1CC=CC21` (stereo not drawn) [Compound 33], for which the values for the IC50 in test [1] (setting [3]) and in test [2] were 40 to 60 µM and 10 to 20 µM, respectively.

As for `O=C(Oc1ccc(-c2ccc(Cl)cc2)cc1)c1cccc2c1NC(C(=O)O)C1CC=CC21` (stereo not drawn) [Compound 34], the results for the IC50 in test [1] (setting [3]) and in test [2] were 60 to 80 µM and 1 to 10 µM, respectively.

Consider `CN(C)C(=O)c1ccc(-c2ccc(OC(=O)c3cccc4c3NC(C(=O)O)C3CC=CC43)cc2)cc1` (stereo not drawn) [Compound 35], for which, in test [1] (setting [3]), the half-maximal inhibitory concentration (IC50) is more than 200 µM.

As for `O=C(O)C1Nc2c(COc3ccc(-c4ccccc4)cc3)cccc2C2C=CCC12` (stereo not drawn) [Compound 36], in test [1] (setting [3]), the IC50 was more than 200 µM.

With `N#Cc1cc(COc2cccc3c2NC(C(=O)O)C2CC=CC32)ccc1-c1ccccc1` (stereo not drawn) [Compound 37], the IC50 in test [1] (setting [3]) was more than 200 µM.

As to `COc1ccc(-c2ccc(COc3cccc4c3NC(C(=O)O)C3CC=CC43)cc2)cc1` (stereo not drawn) [Compound 38], in test [1] (setting [3]), the IC50 was more than 200 µM.

On to `O=C(Oc1ccc(Oc2ccccc2)cc1)c1cccc2c1NC(C(=O)O)C1CC=CC21` (stereo not drawn) [Compound 39], for which the IC50 lay in the range of 50 to 70 µM in test [1] (setting [3]) and 10 to 30 µM in test [2].

As to `O=C(Oc1ccc(-c2ccccc2)cc1)c1cc(Cl)cc2c1NC(C(=O)O)C1CC=CC21` (stereo not drawn) [Compound 40], the IC50 in test [1] (setting [3]) lay within 30 to 50 µM; in test [2] it was 5 to 15 µM.

Take `O=C(c1ccccc1)c1ccc(OC(=O)c2cccc3c2NC(C(=O)O)C2CC=CC32)cc1` (stereo not drawn) [Compound 41]: the IC50 lay within 120 to 140 µM in test [1] (setting [3]) and 70 to 80 µM in test [2].

In the case of `CC(=O)N(c1ccccc1)c1ccc(OC(=O)c2cccc3c2NC(C(=O)O)C2CC=CC32)cc1` (stereo not drawn) [Compound 42], in test [1] (setting [3]), the IC50 fell in the range of 40 to 60 µM.

On to `O=C(Oc1ccccc1)c1cccc2c1NC(C(=O)O)C1CC=CC21` (stereo not drawn) [Compound 43], for which the IC50 in test [1] (setting [3]) fell in the range of 30 to 50 µM.

Take `Cc1ccc(OC(=O)c2cccc3c2NC(C(=O)O)C2CC=CC32)cc1` (stereo not drawn) [Compound 44]: the IC50 in test [1] (setting [3]) was in the range of 1 to 10 µM; in test [2] it was 1 to 5 µM.

For `O=C(Oc1ccc(Cl)cc1)c1cccc2c1NC(C(=O)O)C1CC=CC21` (stereo not drawn) [Compound 45], the IC50 in test [1] (setting [3]) was in the range of 160 to 180 µM.

Turning to `COc1ccc(OC(=O)c2cccc3c2NC(C(=O)O)C2CC=CC32)cc1` (stereo not drawn) [Compound 46], the IC50 in test [1] (setting [3]) is 1 to 10 µM.

In the case of `CC(C)(C)c1ccc(OC(=O)c2cccc3c2NC(C(=O)O)C2CC=CC32)cc1` (stereo not drawn) [Compound 47], the values for the IC50 in test [1] (setting [3]) and in test [2] were 10 to 20 µM and 5 to 15 µM, respectively.

On to `O=C(Oc1ccc([N+](=O)[O-])cc1)c1cccc2c1NC(C(=O)O)C1CC=CC21` (stereo not drawn) [Compound 48], for which the IC50 in test [1] was in the range of 180 to 200 µM.

Regarding `O=C(Oc1cc(Cl)cc(Cl)c1)c1cccc2c1NC(C(=O)O)C1CC=CC21` (stereo not drawn) [Compound 49], the IC50 was 30 to 50 µM in test [1] (setting [3]) and 1 to 10 µM in test [2].

Regarding `COc1ccc(-c2ccc(N(Cc3cccc4c3NC(C(=O)O)C3CC=CC43)C(C)=O)cc2)cc1` (stereo not drawn) [Compound 50], the IC50 in test [1] (setting [3]) fell in the range of 150 to 170 µM.
